# Legend:
# rat [1] = settings: Combined chronic toxicity/carcinogenicity, sprague dawley, Oral, Feed, dose end: 105 week, group: systemic
# rat [2] = settings: Combined chronic toxicity/carcinogenicity, sprague dawley, Oral, Feed, dose end: 104 week, group: systemic
# mouse [3] = settings: Carcinogenicity, cd1, Oral, [Not Specified], dose end: 18 month, group: systemic
# rabbit [4] = settings: Prenatal developmental toxicity study, new zealand white, Oral, Gavage/Intubation, dose end: 18 GD
# rat [5] = settings: Subchronic oral toxicity in rodents, sprague dawley, Gavage/Intubation, dose end: 12 week, group: systemic, systemic / clinical chemistry / albumin / albumin + systemic / clinical chemistry / alkaline phosphatase (alp/alk) / alkaline phosphatase (…
# mouse [6] = settings: Carcinogenicity, cd1, Oral, Feed, dose end: 104 week, group: systemic
# rat [7] = settings: Subchronic oral toxicity in rodents, wistar, Feed, dose end: 13 week, group: systemic
# rat [8] = settings: Multigenerational reproductive toxicity study, sprague dawley, Oral, Feed, dose end: 2 generation
# dog [9] = settings: Chronic toxicity; beagle; Oral; Feed; dose end: 2 year; group: systemic; systemic / in life observation / body weight / body weight gain + systemic / in life observation / food consumption / food consumption + …
# mouse [10] = settings: Subchronic oral toxicity in rodents, cd1, Feed, dose end: 90 day, group: systemic
# rat [11] = settings: Chronic toxicity; sprague dawley (CD); Oral; Feed; dose end: 104 week; group: systemic; systemic / in life observation / body weight / body weight + systemic / in life observation / body weight / body weight gain
# rat [12] = settings: Combined chronic toxicity/carcinogenicity, other, Oral, Feed, dose end: 104 week, group: systemic
# dog [13] = settings: Sub-acute repeat dose toxicity; other; Oral; Feed; dose end: 4 week; group: systemic; systemic / in life observation / body weight / body weight gain + systemic / in life observation / food consumption / food consumption
# rat [14] = settings: Chronic toxicity; wistar; Oral; Feed; dose end: 2 year; group: systemic; systemic / hematology / hemoglobin (hgb) / hemoglobin (hgb) + systemic / in life observation / body weight / body weight + systemic / organ …
# dog [15] = settings: Chronic toxicity, beagle, Oral, Feed, dose end: 12 month, group: systemic
# rat [16] = settings: Prenatal developmental toxicity study, wistar, Oral, Gavage/Intubation, dose end: 16 GD
# rabbit [17] = settings: Prenatal developmental toxicity study, dutch, Oral, Gavage/Intubation, dose end: 18 GD
# dog [18] = settings: Chronic toxicity, beagle, Oral, Capsule, dose end: 12 month, group: systemic
# rat [19] = settings: Multigenerational reproductive toxicity study, sprague dawley, Oral, Feed, dose end: 2 generation; remark: listed apart in the source
# rat [20] = settings: Combined chronic toxicity/carcinogenicity; wistar; Oral; Feed; dose end: 28 month; group: systemic; systemic / in life observation / body weight / body weight + systemic / in life observation / body weight / body weight gain
# rat [21] = settings: Subchronic oral toxicity in rodents, wistar, Feed, dose end: 3 month, group: systemic
# [22] = systemic / clinical chemistry / aspartate aminotransferase (ast/sgot) / aspartate aminotransferase (ast/sgot)
# [23] = systemic / in life observation / mortality / mortality + systemic / pathology gross / mammary gland / cyst + systemic / pathology gross / …
# [24] = systemic / in life observation / body weight / body weight + systemic / in life observation / body weight / body weight gain + systemic / in…
# [25] = systemic / in life observation / clinical signs / fur (altered appearance) + systemic / in life observation / clinical signs / urine …
# [26] = systemic / in life observation / food consumption / food consumption + systemic / in life observation / body weight / body weight
# [27] = group: developmental, developmental / developmental malformation / bone / supernumerary
# [28] = group: developmental, developmental / developmental malformation / bone / supernumerary + developmental / developmental malformation / heart / [other] + …
# [29] = group: maternal, systemic / in life observation / body weight / body weight gain + systemic / in life observation / food consumption / food consumption
# [30] = systemic / clinical chemistry / cholesterol / cholesterol + systemic / clinical chemistry / gamma glutamyl transpeptides (gtp) / gamma …
# [31] = systemic / hematology / anemia / anemia - hemolytic + systemic / hematology / hemoglobin (hgb) / hemoglobin (hgb) + systemic / hematology / …
# [32] = group: offspring, systemic / in life observation / body weight / offspring (pup) weight
# [33] = group: parental, systemic / pathology gross / lung / foci + systemic / pathology microscopic / kidney / dilatation + systemic / pathology microscopic / …
# [34] = systemic / pathology microscopic / liver / hypertrophy
# [35] = systemic / pathology microscopic / liver / hypertrophy + systemic / organ weight / liver / absolute + systemic / organ weight / liver / …
# [36] = systemic / clinical chemistry / thyroxine (t4) / thyroxine (t4), total + systemic / pathology microscopic / liver / cellular alteration + …
# [37] = group: developmental, developmental / developmental malformation / bone / bent + developmental / developmental malformation / bone / incomplete ossification + …
# [38] = group: maternal, reproductive / reproductive performance / resorptions / resorptions + systemic / in life observation / body weight / body weight gain + …
# [39] = group: developmental, developmental / developmental malformation / bone / incomplete ossification + developmental / developmental malformation / bone / misshapen…
# [40] = group: maternal, reproductive / reproductive performance / aborted / aborted + systemic / in life observation / food consumption / food consumption + …
# [41] = systemic / clinical chemistry / gamma glutamyl transferase (ggt) / gamma glutamyl transferase (ggt)
# [42] = group: offspring, systemic / in life observation / clinical signs / reduced body size
# [43] = group: offspring, systemic / in life observation / clinical signs / reduced body size + systemic / in life observation / body weight / offspring (pup) weight
# [44] = group: parental, systemic / in life observation / body weight / body weight + systemic / in life observation / body weight / body weight gain + systemic / in…
# [45] = group: parental, systemic / in life observation / body weight / body weight + systemic / in life observation / food consumption / food consumption
# [46] = systemic / hematology / hemoglobin (hgb) / hemoglobin (hgb) + systemic / in life observation / body weight / body weight gain + systemic / …
# [47] = systemic / urinalysis / appearance and color / appearance and color
smiles,measurement,setting,value
"CC1(C)C(=O)N(Cl)C(=O)N1Cl [1,3-Dichloro-5,5-dimethylhydantoin]",LEL,rat [1]; [22],100 mg/kg/day
same,NEL,rat [1]; [22],< 100 mg/kg/day
same,LOAEL,rat [1]; [23],1000 mg/kg/day
same,NOAEL,rat [1]; [23],320 mg/kg/day
same,NOAEL,rat [2]; [24],300 mg/kg/day
same,LOAEL,rat [2]; systemic / in life observation / body weight / body weight + systemic / in life observation / body weight / body weight gain + systemic / …,1000 mg/kg/day
same,LEL,rat [2]; [25],100 mg/kg/day
same,NEL,rat [2]; [25],< 100 mg/kg/day
same,LEL,mouse [3]; systemic / in life observation / body weight / body weight,320 mg/kg/day
same,NEL,mouse [3]; systemic / in life observation / body weight / body weight + systemic / in life observation / food consumption / food consumption,100 mg/kg/day
same,LOAEL,mouse [3]; [26],> 1000 mg/kg/day
same,NOAEL,mouse [3]; [26],≥ 1000 mg/kg/day
same,LEL,rabbit [4]; [27],500 mg/kg/day
same,LOAEL,rabbit [4]; [27],500 mg/kg/day
same,NEL,rabbit [4]; [28],100 mg/kg/day
same,NOAEL,rabbit [4]; [28],100 mg/kg/day
same,LEL,rabbit [4]; [29],1000 mg/kg/day
same,LOAEL,rabbit [4]; [29],1000 mg/kg/day
same,NEL,rabbit [4]; [29],500 mg/kg/day
same,NOAEL,rabbit [4]; [29],500 mg/kg/day
CC1=C(/C=C/C(C)=C/C=C/C(C)=C\C(=O)O)C(C)(C)CCC1 [13-cis Retinoic acid],LEL,rat [5],4 mg/kg/day
same,LOAEL,rat [5],> 40 mg/kg/day
same,NEL,rat [5],< 4 mg/kg/day
same,NOAEL,rat [5],≥ 40 mg/kg/day
COC(=O)c1c(Cl)c(Cl)c(C(=O)OC)c(Cl)c1Cl [Chlorthal-dimethyl],LOAEL,mouse [6]; [30],1140 mg/kg/day
same,NEL,mouse [6]; [30],15 mg/kg/day
same,NOAEL,mouse [6]; [30],510 mg/kg/day
same,LEL,mouse [6]; systemic / clinical chemistry / gamma glutamyl transpeptides (gtp) / gamma glutamyl transpeptides (gtp) + systemic / clinical chemistry / …,150 mg/kg/day
same,LOAEL,rat [7]; [31],> 2500 mg/kg/day
same,NEL,rat [7]; [31],5 mg/kg/day
same,NOAEL,rat [7]; [31],≥ 2500 mg/kg/day
same,LEL,rat [7]; systemic / hematology / polychromasia / polychromasia,17 mg/kg/day
same,LEL,rat [8]; [32],233 mg/kg/day
same,LOAEL,rat [8]; [32],233 mg/kg/day
same,NEL,rat [8]; [32],45 mg/kg/day
same,NOAEL,rat [8]; [32],45 mg/kg/day
same,LOAEL,rat [8]; [33],233 mg/kg/day
same,NOAEL,rat [8]; [33],45 mg/kg/day
same,LEL,"rat [8]; group: parental, systemic / pathology microscopic / lung / infiltration cellular + systemic / pathology microscopic / thymus / involution",45 mg/kg/day
same,LEL,dog [9],100 mg/kg/day
same,LOAEL,dog [9],> 100 mg/kg/day
same,NEL,dog [9],15 mg/kg/day
same,NOAEL,dog [9],≥ 100 mg/kg/day
same,LEL,mouse [10]; [34],1050 mg/kg/day
same,LOAEL,mouse [10]; [34],1240 mg/kg/day
same,NEL,mouse [10]; [35],517 mg/kg/day
same,NOAEL,mouse [10]; [35],406 mg/kg/day
same,LEL,rat [11],1000 mg/kg/day
same,LOAEL,rat [11],1000 mg/kg/day
same,NEL,rat [11],50 mg/kg/day
same,NOAEL,rat [11],50 mg/kg/day
same,LEL,rat [12]; [36],10 mg/kg/day
same,LOAEL,rat [12]; [36],10 mg/kg/day
same,NOAEL,rat [12]; [36],1 mg/kg/day
same,NEL,rat [12]; systemic / pathology microscopic / eye / atrophy + systemic / pathology microscopic / liver / cellular alteration + systemic / pathology …,1 mg/kg/day
same,LEL,dog [13],250 mg/kg/day
same,LOAEL,dog [13],> 1250 mg/kg/day
same,NEL,dog [13],50 mg/kg/day
same,NOAEL,dog [13],≥ 1250 mg/kg/day
same,LEL,rat [14],80 mg/kg/day
same,LOAEL,rat [14],> 80 mg/kg/day
same,NEL,rat [14],20 mg/kg/day
same,NOAEL,rat [14],≥ 80 mg/kg/day
CCCN(CCC)c1c([N+](=O)[O-])cc(C(F)(F)F)cc1[N+](=O)[O-] [Trifluralin],NEL,dog [15]; systemic / hematology / methemoglobin / methemoglobin + systemic / clinical chemistry / cholesterol / cholesterol + systemic / clinical …,0.8 mg/kg/day
same,LOAEL,dog [15]; systemic / organ weight / liver / absolute,3.8 mg/kg/day
same,NOAEL,dog [15]; systemic / organ weight / liver / absolute + systemic / clinical chemistry / cholesterol / cholesterol + systemic / clinical chemistry / …,0.8 mg/kg/day
same,LEL,dog [15]; systemic / organ weight / liver / absolute + systemic / hematology / methemoglobin / methemoglobin,3.8 mg/kg/day
same,LEL,rat [16]; [37],500 mg/kg/day
same,LOAEL,rat [16]; [37],500 mg/kg/day
same,NEL,rat [16]; [37],100 mg/kg/day
same,NOAEL,rat [16]; [37],100 mg/kg/day
same,LEL,rat [16]; [38],500 mg/kg/day
same,LOAEL,rat [16]; [38],500 mg/kg/day
same,NEL,rat [16]; [38],100 mg/kg/day
same,NOAEL,rat [16]; [38],100 mg/kg/day
same,LEL,rabbit [17]; [39],500 mg/kg/day
same,LOAEL,rabbit [17]; [39],500 mg/kg/day
same,NEL,rabbit [17]; [39],225 mg/kg/day
same,NOAEL,rabbit [17]; [39],225 mg/kg/day
same,LEL,rabbit [17]; [40],225 mg/kg/day
same,LOAEL,rabbit [17]; [40],225 mg/kg/day
same,NEL,rabbit [17]; [40],100 mg/kg/day
same,NOAEL,rabbit [17]; [40],100 mg/kg/day
same,LEL,dog [18]; [41],0.75 mg/kg/day
same,NEL,dog [18]; [41],< 0.75 mg/kg/day
same,NOAEL,dog [18]; systemic / clinical chemistry / gamma glutamyl transferase (ggt) / gamma glutamyl transferase (ggt) + systemic / in life observation / body …,2.4 mg/kg/day
same,LOAEL,dog [18]; [24],40 mg/kg/day
same,LEL,rat [19]; [42],47 mg/kg/day
same,LOAEL,rat [19]; [42],47 mg/kg/day
same,NEL,rat [19]; [43],15 mg/kg/day
same,NOAEL,rat [19]; [43],15 mg/kg/day
same,NEL,rat [19]; [44],15 mg/kg/day
same,NOAEL,rat [19]; [44],15 mg/kg/day
same,LEL,rat [19]; [45],47 mg/kg/day
same,LOAEL,rat [19]; [45],47 mg/kg/day
same,LEL,rat [20],169 mg/kg/day
same,LOAEL,rat [20],169 mg/kg/day
same,NEL,rat [20],40 mg/kg/day
same,NOAEL,rat [20],40 mg/kg/day
same,LOAEL,rat [21]; [46],392 mg/kg/day
same,NOAEL,rat [21]; [46],154 mg/kg/day
same,LEL,rat [21]; [47],59 mg/kg/day
same,NEL,rat [21]; [47],< 59 mg/kg/day

# Reference: EPA's ToxRefDB 2
